# Measurements published in ChEMBL document CHEMBL5604064, “ASAP - DENV-1 NS2B-NS3 protease fluorescence dose response” (2024).
# “And” between values parts separate entries of the source, which are not always exact repeats. Equal entries are not always repeated.
# Target: T1, NS3 protease (dengue virus type 1, UniProt A0A0K0TQ28)
# T1 sequence (A0A0K0TQ28 whole entry): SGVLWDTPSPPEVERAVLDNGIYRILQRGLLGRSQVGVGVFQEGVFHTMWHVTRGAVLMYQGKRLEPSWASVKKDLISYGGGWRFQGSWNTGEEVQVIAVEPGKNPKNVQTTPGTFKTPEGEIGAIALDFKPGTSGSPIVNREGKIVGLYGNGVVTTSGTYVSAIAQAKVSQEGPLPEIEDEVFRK
# Experiment: Functional biochemical assay to identify treatments for viral infectious disease that targets Dengue virus type 1 NS2B-NS3 protease. Utilizing a direct enzyme activity measurement method, reading the fluorescence intensity is used to characterize the relative potency of inhibitors as IC50.
# Set-up: species or system Nauru/West Pac/1974
row,Compound,IC50
1,N=C(N)NCCC[C@H](NC(=O)c1nccs1)C(=O)N[C@@H](CCCCN)C(=O)N[C@@H](C(N)=O)c1ccc(OCc2ccc(C(F)(F)F)cc2)cc1,920 nM and 1.03 µM (2×) and 1 µM and 926 nM and 1.69 µM and 865 nM
2,N=C(N)NCCC[C@H](NC(=O)[C@H](Cc1ccc(CN)cc1)NC(=O)c1ccccc1)B(O)O,0.31 µM and 0.315 µM
3,COCCNC(=O)[C@H](Nc1ccc2c(c1)CNC2)c1cc(Cl)cc(C2CC2)c1,> 99.5 µM
4,O=C(NCC(F)F)[C@H](Nc1ccc2c(c1)CNC2)c1cc(Cl)cc(C2CC2)c1,> 99.5 µM
5,O=C(Nc1ccc2c(c1)CNCC2)c1cc(Cl)cc2[nH]ncc12,> 99.5 µM
6,CC(C)(C)c1cc(Br)cc(C(=O)Nc2ccc3c(c2)CNC3)c1,> 99.5 µM
7,Clc1ccc2[nH]cc(Cc3ccc(-c4nn[nH]n4)cc3)c2c1,62.9 µM
8,CN1Cc2ccc(NC(=O)c3cc(Cl)cc4[nH]ncc34)cc2C1,> 99.5 µM
9,O=C(Nc1ccc2c(c1)CNC2)c1cccc(-c2cnco2)c1,20.3 µM
10,CC(C)NC(=O)[C@H](Nc1ccc2c(c1)CNC2)c1cc(Cl)cc2[nH]ncc12,34.4 µM
11,Cn1cc2cc(Cl)cc(C(=O)Nc3ccc4c(c3)CNC4)c2n1,> 99.5 µM
12,O=C(Nc1ccc2c(c1)CNC2)c1cc(Br)cc2ccccc12,83.7 µM
13,O=C(Nc1ccc2c(c1)CNC2)c1cc(Cl)cc2c1CCC2,> 99.5 µM
14,CNC(=O)[C@H](Nc1ccc2c(c1)CNC2)c1cc(Cl)cc(C2CC2)c1,> 99.5 µM
15,O=C1Cc2c(cccc2C(=O)Nc2ccc3c(c2)CNC3)N1,11.3 µM
16,O=C(Nc1ccc2c(c1)CNC2)c1cc(Br)cc2[nH]c(-c3ccccc3)nc12,1.24 µM
17,N#C[C@H](Nc1ccc2c(c1)CNC2)c1cc(Cl)cc(C2CC2)c1,> 99.5 µM
18,O=C(Nc1cc(Cl)cc([C@H]2CN(Cc3ccccc3)C[C@@H]2c2cccc(-c3nn[nH]n3)c2)c1)OCc1ccccc1,6.63 µM
19,Clc1cc(CNc2ccc3c(c2)CNC3)c2cn[nH]c2c1,30.9 µM
20,CC(C)c1cc(Br)cc(C(=O)Nc2ccc3c(c2)CNC3)c1,> 99.5 µM
21,O=C(NC1CCOCC1)[C@H](Nc1ccc2c(c1)CNC2)c1cc(Cl)cc(C2CC2)c1,> 99.5 µM
22,Cn1cc(CNC(=O)[C@H](Nc2ccc3c(c2)CNC3)c2cc(Cl)cc(C3CC3)c2)cn1,> 99.5 µM
23,O=C(Nc1cc(Cl)cc(C(=O)Nc2ccc3c(c2)CNC3)c1)OCc1ccccc1,> 99.5 µM
24,Cn1cc(CCc2nc3c(C(=O)Nc4ccc5c(c4)CNC5)cc(Cl)cc3[nH]2)cn1,21.6 µM
25,O=C(Nc1ccc2c(c1)CNC2)c1cc(F)cc2[nH]ncc12,68.2 µM

row,Compound,IC50
1,Cc1c(C(=O)Nc2cc([C@H]3CCOC3)ccn2)cc(C2CC2)n1C,> 99.5 µM
2,O=C(Nc1ccc2c(c1)CNC2)c1cc(Cl)cc2ccncc12,> 99.5 µM
3,O=C1Cc2c(cc(Br)cc2C(=O)Nc2ccc3c(c2)CNC3)N1,84.6 µM
4,CC(C)NC(=O)[C@H](Nc1ccc2c(c1)CNC2)c1cc(Cl)cc2[nH]c(-c3ccccc3)nc12,7.46 µM and 2.06 µM
5,O=C(Nc1cc(Cl)cc([C@H](C#CCO)Nc2cccc(-c3nn[nH]n3)c2)c1)OCc1ccccc1,12.7 µM
6,NCCc1csc2cc(C(=O)Nc3cc([C@H]4CCOC4)ccn3)ccc12,> 99.5 µM
7,O=C(Nc1ccc2c(c1)CNC2)c1cccc2[nH]c(C(F)(F)F)cc12,> 99.5 µM
8,O=C(Nc1ccc2c(c1)CNC2)c1cc(Cl)cc2cn[nH]c12,> 99.5 µM
9,N#Cc1cccc(-c2nc3c(C(=O)Nc4ccc5c(c4)CNC5)cc(F)cc3[nH]2)c1,2.41 µM
10,NCc1cccc([C@H]2C[C@@H]2c2cc(Cl)cc(NC(=O)OCc3ccccc3)c2)c1,25.3 µM
11,C=CC[C@H]1NCc2cc(NC(=O)c3cccc4c3CC(=O)N4)ccc21,> 99.5 µM
12,N#C[C@H](Nc1cccc(-c2nn[nH]n2)c1)c1cc(Cl)cc(NC(=O)OCc2ccccc2)c1,10 µM
13,O=C(Nc1ccc2c(c1)CNC2)c1cc(Cl)cc2[nH]ncc12,69.2 µM
14,O=C(Nc1ccc2c(c1)CNC2)c1ccc2[nH]cc(C3CCNCC3)c2c1,31.2 µM
15,O=C(Nc1ccc2c(c1)CNC2)c1cc(Br)cc2[nH]c(=O)[nH]c12,32.7 µM
16,N#C[C@H](Nc1ccc2c(c1)CNC2)c1cc(Cl)cc2[nH]ncc12,> 99.5 µM
17,O=C(Nc1cc(Cl)cc(C(=O)Nc2cccc([C@H]3C[C@H]3C(=O)O)c2)c1)OCc1ccccc1,25.2 µM
18,Clc1cc([C@@H]2C[C@H]2c2cccc(C3CCNCC3)c2)c2cn[nH]c2c1,5.94 µM
19,Cc1c(C(=O)Nc2cc(-c3cccnc3)ccn2)cc(C2CC2)n1C,4.83 µM
20,O=C(NCC(F)F)[C@H](Nc1ccc2c(c1)CNC2)c1cc(F)cc2[nH]ccc12,> 99.5 µM
21,CC(C)c1nnc(-c2nc3c(C(=O)Nc4ccc5c(c4)CNC5)cc(F)cc3[nH]2)s1,21.8 µM
22,C=CC[C@H]1NCc2cc(NC(=O)c3cc(Cl)cc4[nH]ncc34)ccc21,> 99.5 µM
23,Cc1nc2c(C(=O)Nc3ccc4c(c3)CNC4)cc(Cl)cc2[nH]1,> 99.5 µM
24,O=C(Nc1cc(Cl)cc(-c2ccc3[nH]c(C(=O)O)cc3c2)c1)OCc1ccccc1,5.82 µM
25,O=C(NCCC1CC1)[C@H](Nc1ccc2c(c1)CNC2)c1cc(Cl)cc(C2CC2)c1,> 99.5 µM

row,Compound,IC50
1,NCc1cccc(-c2csc3cc(C(=O)Nc4ccc5c(c4)CNC5)ccc23)c1,29.9 µM
2,N#Cc1cc2c(cc1NC(=O)c1cc(F)cc3[nH]ncc13)CNC2,59.7 µM
3,O=C(Nc1ccc2c(c1)CNC2)c1cc(Cl)cc2cc[nH]c12,> 99.5 µM
4,C=CC[C@H]1NCc2cc(NC(=O)c3cc(F)cc4[nH]ncc34)ccc21,> 99.5 µM
5,Cc1ccccc1-c1nc2c(C(=O)Nc3ccc4c(c3)CNC4)cc(F)cc2[nH]1,2.19 µM
6,O=C(Nc1cc(Br)c2c(c1)CNC2)c1cc(F)cc2[nH]ncc12,75.5 µM
7,C=CC[C@H](Nc1cc(Cl)cc(NC(=O)OCc2ccccc2)c1)c1cccc(-c2nn[nH]n2)c1,6.41 µM
8,CNC(=O)[C@H](Nc1cc(CN)cc(C(=O)O)c1)c1cc(Cl)cc(C2CC2)c1,> 99.5 µM
9,O=C(NCC(F)F)[C@H](Nc1ccc2c(c1)CNC2)c1cc(F)cc2[nH]ncc12,> 99.5 µM
10,O=C1Cc2c(cc(F)cc2C(=O)Nc2ccc3c(c2)CNC3)N1,36.2 µM
11,O=C(Nc1cc(Cl)cc([C@H]2C[C@@H]2c2cccc(C3CCNCC3)c2)c1)OCc1ccccc1,6.28 µM
12,O=C(Nc1ccc2c(c1)CNC2)c1ccc2c(C3=CCNCC3)csc2c1,56.3 µM
13,CC(C)CNC(=O)c1cc(Cl)ccc1NS(=O)(=O)c1ccc(Oc2ccccc2Cl)cc1,14.4 µM
14,C=CC[C@H]1NCc2cc(N[C@H](C(=O)NC(C)C)c3cc(Cl)cc4[nH]ncc34)ccc21,81.8 µM
15,O=C(Nc1ccc2c(c1)CNC2)c1cc(F)cc2[nH]c(-c3ccccc3F)nc12,3.86 µM
16,O=C(NC1CCOCC1)[C@H](Nc1ccc2c(c1)CNC2)c1cc(Cl)cc2[nH]ncc12,> 99.5 µM
17,CNC(=O)[C@H](Nc1cc(Cl)cc(NC(=O)OCc2ccccc2)c1)c1cccc(-c2nn[nH]n2)c1,46.5 µM
18,O=C(Nc1ccc2c(c1)CNC2)c1cc(F)c2[nH]ccc2c1,> 99.5 µM
19,N[C@H]1CC[C@H](c2ccc(NC(=O)c3cc(Cl)cc(NC(=O)OCc4ccccc4)c3)cc2)C1,8.49 µM
20,Cn1c(=O)[nH]c2c(C(=O)Nc3ccc4c(c3)CNC4)cc(Br)cc21,> 99.5 µM
21,OCC#C[C@H](Nc1ccc2c(c1)CNC2)c1cc(Cl)cc2[nH]ncc12,19.4 µM
22,O=C(Nc1ccc2c(c1)CNC2)c1cc(F)cc2c1CCC2,> 99.5 µM
23,NCc1cccc(NC(=O)c2cc(Cl)cc(NC(=O)OCc3ccccc3)c2)c1,51.1 µM
24,c1cc(C2CCN(Cc3c[nH]c4ccccc34)CC2)c2ccncc2c1,> 99.5 µM
25,Cc1cccc(-c2nc3c(C(=O)Nc4ccc5c(c4)CNC5)cc(Cl)cc3[nH]2)c1O,4.26 µM

row,Compound,IC50
1,O=C(Nc1ccc2c(c1)CNC2)c1cccc2[nH]c(=O)[nH]c12,65.5 µM
2,O=C(Nc1ccc2c(c1)CNC2)c1cc(Cl)cc(C(F)(F)F)n1,7.25 µM
3,O=C(Nc1ccc2c(c1)CNC2)c1cc(F)cc2[nH]c(-c3ccc(F)cc3)nc12,2.8 µM
4,CCc1cc(C(=O)Nc2cccc(-n3nn[nH]c3=O)c2)sc1-c1ccc(Cl)cc1,11.4 µM
5,Cc1c(C(=O)Nc2cc(CCCN)ccn2)cc(C2CC2)n1C,25.5 µM
6,O=C(Nc1ccc2c(c1)CNC2)c1cccc2nc(O)ccc12,> 99.5 µM
7,NCc1ccc([C@H]2C[C@@H]2c2cc(Cl)cc(NC(=O)OCc3ccccc3)c2)cc1,8.89 µM
8,COc1cc(-c2cc(NC(=O)c3cc(F)cc4[nH]ncc34)cc3c2CNC3)ccn1,82.8 µM
9,CCOCCNC(=O)[C@H](Nc1ccc2c(c1)CNC2)c1cc(Cl)cc2[nH]ncc12,> 99.5 µM
10,O=C(Nc1cc(Cl)cc(C(=O)Nc2ccc3c(c2)CCNC3)c1)OCc1ccccc1,47.7 µM
11,CC(C)(c1nc2c(C(=O)Nc3ccc4c(c3)CNC4)cc(F)cc2[nH]1)S(C)(=O)=O,16.1 µM
12,O=C1Cc2cc(C(=O)Nc3ccc4c(c3)CNC4)ccc2N1,5.26 µM and 4.47 µM
13,NCCc1csc2cc(C(=O)Nc3ccc4c(c3)CNC4)ccc12,> 99.5 µM
14,Cc1ccc(NC(=O)c2cc(Cl)cc(NC(=O)OCc3ccccc3)c2)cc1CN,> 99.5 µM
15,O=C(Nc1ccc2c(c1)CNC2)c1cc(F)cc2[nH]c(-c3ccccc3)nc12,3.67 µM
16,O=C(Nc1ccc2c(c1)CNC2)c1cc(Cl)cc2nn(-c3ccccc3)nc12,2.69 µM
17,Cc1[nH]c2ccccc2c1CN1CCC(c2c[nH]c3ncccc23)CC1,> 99.5 µM
18,O=C(Nc1ccc2c(c1)CNC2)c1cccc2cn[nH]c12,49.9 µM
19,O=C(Nc1cc2c(cc1Br)CNC2)c1cc(F)cc2[nH]ncc12,> 99.5 µM
20,O=C(Nc1ccc2c(c1)CNC2)c1ccc2[nH]ccc2c1,> 99.5 µM
21,O=C(Nc1cc2c(c(C3=CCS(=O)(=O)CC3)c1)CNC2)c1cc(F)cc2[nH]ncc12,> 99.5 µM
22,CNC(=O)[C@H](Nc1cc(CN)cc(-c2nn[nH]n2)c1)c1cc(Cl)cc(C2CC2)c1,> 99.5 µM
23,O=C(Nc1cc2c(c(C3=CCOCC3)c1)CNC2)c1cc(F)cc2[nH]ncc12,39.9 µM
24,O=C(Nc1cc(Cl)cc(C(=O)Nc2cccc(-n3nn[nH]c3=O)c2)c1)OCc1ccccc1,11.6 µM
